Measurements as given in US11230526B1, “Cylcoalkenyl derivatives useful as agonists of the GPR120 and/or GPR40 receptors” (Janssen Pharmaceutica NV, priority 2018, dated 2022).

Legend:
C57bl/6J Mice = experiment: GPR120 C57bl6 mouse IPGTT; format: in vivo; details: male C57bl/6J mice, dosed 30 minutes prior to glucose (IP) 1.5 g/kg
Method: Male, C57bl/6J Mice were ordered in at 8 weeks of age from Jackson Labs. Individual mice weighed anywhere in the range of 25-30 grams on study day. The mice were fasted, with removal of food occurring at 7 am on the morning of the study. Animals were moved into the room at 10:00 am, to give them time to acclimate. Glucose (insulin syringes) was drawn up either the night before or the morning of the study. Glucose was dosed (IP) at 1.5 g/kg at 7.5 ml/kg (20% glucose straight TEKNOVA, 250 ml sterile bottle w/catalogue number G0525). Test compounds were kept spinning and were only drawn into the syringes prior to study commencement. Animals were bled via tail snip to determine basal glucose levels prior to dosing of treatments. An Ascensia BREEZE Blood Glucose Monitoring System by Bayer (using unique 10-test disks) was used for determining glucose levels. The bleeds started at approximately 12:45 pm and dosing started, at 1-minute intervals, immediately after. All groups were dosed 30 minutes prior to glucose administration at a dose volume of 10 ml/kg (the dose volume was calculated separately for each individual animal). Thirty minutes after the first dose animals were bled again for a second baseline, or T=0, and immediately dosed with glucose via an i.p. injection. The exact dose volume for glucose was also calculated separately for each individual animal. Glucose measurements were taken at −30 min prior to compound dose, at t=0 (immediately prior to glucose dose), and at 15, 30, 45, 60, 90 min post glucose dose.
Glucose values were entered into an Excel sheet and graphed in GraphPad Prism. The following were calculated from Prism: Change from −30 to 0 Baseline Glucose, Raw Glucose AUC −30 to 90 min, Delta Glucose AUC −30 to 90 min, Raw Glucose AUC 0 to 90 min, Delta Glucose AUC 0 to 90 min.

[1] = test system: C57B16 mice on a high fat diet; experiment: GPR120 DIO mice OGTT screening; format: in vivo, mouse; details: DIO mice (60% HFD), glucose AUC −30 to 90 min, % change from vehicle
Method: GPR120 DIO Mice OGTT Screening
18-22 week old, C57B16 mice on a high fat diet (60% HFD) for 12-16 weeks (ave. body weight ˜ 37-41 g) were fasted for 6 hr, with removal of food occurring at 7 am on the morning of the study. The animals were sorted into treatment groups the day before the study by body weight. Animals outside the bounds of ˜30-50 g were left out of the study. The animals had been handled and shammed a total of 5-8 days (1-3 days immediately prior to the study). Glucose (in 1 mL syringes) was drawn up the morning of the study. Test compounds were kept spinning and were only drawn into 1 ml syringes prior to study commencement. Animals were bled via tail snip to determine basal glucose levels prior to dosing of treatments. An Ascensia BREEZE Blood Glucose Monitoring System by Bayer was used for determining glucose levels.
Animals were moved into the testing room at ˜9-11 am, to yield them time to acclimate. The bleeds and dosing started at approximately 1 pm in 30-second intervals per animal. All groups were dosed 30 minutes prior to glucose administration at a dose volume of 10 ml/kg (the dose volume was calculated separately for each individual animal). Test compounds were administered at one or more of the following dosages: 0.1 mg/kg, 0.3 mg/kg, 1 mg/kg, 3 mg/kg and 10 mg/kg.
Thirty minutes after the first dose (with test compound) animals were bled again for a second baseline, or T=0, and immediately dosed with glucose (20% solution, TEKNOVA, 250 ml sterile bottle w/catalogue number G0525) via a PO injection. The exact dose volume for glucose was also calculated separately for each individual animal.
Blood glucose was measured at 15, 30, 45, 60, and 90 minutes post-glucose administration via the snipped tail. If an animal reached a value of “HI”, the upper limit of the glucometer (600 mg/dl) was substituted as the blood glucose value and the study was analyzed as normal with no exclusions. If 50% or more of any treatment group reaches a “HI” value at least once, the study was considered invalid and repeated. Glucose values were typed into an EXCEL spreadsheet where they were used to calculate glucose AUC and delta AUC post-compound and post-glucose. The glucose excursion curves and the different versions of the AUC's were graphed in GraphPad Prism 5.
Note: All statistics completed in this study were completed using the statistical software package GraphPad Prism 5. Standard procedures for analyzing data sets from screening GPR120 compounds in DIO mouse OGTT's were as listed here below. In addition to the statistics that were run using GraphPad Prism 5, Microsoft Excel was used to calculate the percent changes in AUC from vehicle groups as detailed below.
Change from −30 to 0 Baseline Glucose, Raw Glucose AUC −30 to 90 min, Delta Glucose AUC −30 to 90 min, Raw Glucose AUC 0 to 90 min, Delta Glucose AUC 0 to 90 min were analyzed using Column Statistics Analysis, with mean values used to calculate % change from the vehicle mean group, as well as mean, SEM and/or % change from vehicle, where appropriate, and using One-Way ANOVA w/a Tukey Post-Test (Comparing All Pairs of Columns) with each treatment group examined to see if it was statistically significant compared to vehicle (*=P<0.05, **=P<0.01, ***=P<0.001).

SMILES: CCc1ccc(C2=C(COc3ccc(CCC(=O)O)c(F)c3F)CCC2)cc1 [Compound 25, 3-(4-((2-(4-ethylphenyl)cyclopent-1-en-1-yl)methoxy)-2,3-difluorophenyl)Propanoic Acid]
- C57 IPGTT, Dose Response Results (C57bl/6J Mice; 3 mg/kg): 17%
- C57 IPGTT, Dose Response Results (C57bl/6J Mice; 10 mg/kg): 22%
- C57 IPGTT, Dose Response Results (C57bl/6J Mice; 30 mg/kg): 39%

SMILES: CCc1ccc(C2=C(COc3ccc(CCC(=O)O)c(C)c3C)CCC2)cc1 [Compound 27, 3-(4-((2-(4-ethylphenyl)cyclopent-1-en-1-yl)methoxy)-2,3-dimethylphenyl)Propanoic Acid]
- C57 IPGTT, Dose Response Results (C57bl/6J Mice; 1 mg/kg): 15%
- C57 IPGTT, Dose Response Results (C57bl/6J Mice; 3 mg/kg): 23%
- C57 IPGTT, Dose Response Results (C57bl/6J Mice; 10 mg/kg): 37%

SMILES: Cc1ccc(C2=C(COc3ccc(CCC(=O)O)c(C)c3C)CCC2)cc1 [Compound 52, 3-[2,3-dimethyl-4-[[2-(p-tolyl)cyclopenten-1-yl]methoxy]phenyl]Propanoic Acid]
- DIO Lowering (−30 to 90) ([1]; 10 mg/kg): −86%
- C57 IPGTT, Dose Response Results (C57bl/6J Mice; 3 mg/kg): 11%
- C57 IPGTT, Dose Response Results (C57bl/6J Mice; 10 mg/kg): 30%
- C57 IPGTT, Dose Response Results (C57bl/6J Mice; 30 mg/kg): 92%

SMILES: Cc1cc(CCC(=O)O)ccc1OCC1=C(c2ccc(Cl)cc2)CCC1 [Compound 62, 3-[4-[[2-(4-chlorophenyl)cyclopenten-1-yl]methoxy]-3-methyl-phenyl]Propanoic Acid]
- C57 IPGTT, Dose Response Results (C57bl/6J Mice; 1 mg/kg): 10%
- C57 IPGTT, Dose Response Results (C57bl/6J Mice; 3 mg/kg): 35%
- C57 IPGTT, Dose Response Results (C57bl/6J Mice; 10 mg/kg): 56%

SMILES: Cc1ccc(C2=C(COc3ccc(CCC(=O)O)c(C)c3C)CCC2)cc1F [Compound 80, 3-(4-((2-(3-fluoro-4-methylphenyl)cyclopent-1-en-1-yl)methoxy)-2,3-dimethylphenyl)Propanoic Acid]
- DIO Lowering (−30 to 90) ([1]; 3 mg/kg): −33%
- DIO Lowering (−30 to 90) ([1]; 10 mg/kg): −60%
- C57 IPGTT, Dose Response Results (C57bl/6J Mice; 3 mg/kg): 10%
- C57 IPGTT, Dose Response Results (C57bl/6J Mice; 10 mg/kg): 55%
- C57 IPGTT, Dose Response Results (C57bl/6J Mice; 30 mg/kg): 81%

SMILES: Cc1ccc(C2=C(COc3ccc(CCC(=O)O)c(C)c3C)CCC2)cn1 [Compound 85, 3-(2,3-dimethyl-4-((2-(6-methylpyridin-3-yl)cyclopent-1-en-1-yl)methoxy)phenyl)Propanoic Acid]
- C57 IPGTT, Dose Response Results (C57bl/6J Mice; 1 mg/kg): 13%
- C57 IPGTT, Dose Response Results (C57bl/6J Mice; 3 mg/kg): 24%
- C57 IPGTT, Dose Response Results (C57bl/6J Mice; 10 mg/kg): 19%

SMILES: Cc1ccc(C2=C(COc3ccc(CCC(=O)O)c(F)c3F)CCC2)cc1 [Compound 94, 3-(2,3-difluoro-4-((2-(p-tolyl)cyclopent-1-en-1-yl)methoxy)phenyl)Propanoic Acid]
- DIO Lowering (−30 to 90) ([1]; 10 mg/kg): −11%

SMILES: Cc1c(CCC(=O)O)ccc(OCC2=C(c3ccc(Cl)cc3)CC(F)(F)C2)c1C [Compound 137, 3-[4-[[2-(4-chlorophenyl)-4,4-difluoro-cyclopenten-1-yl]methoxy]-2,3-dimethyl-phenyl]Propanoic Acid]
- DIO Lowering (−30 to 90) ([1]; 10 mg/kg): −56%

SMILES: Cc1c(CCC(=O)O)ccc(OCC2=C(c3ccc(Cl)cc3)CCC(F)(F)C2)c1C [Compound 468, 3-[4-[[2-(4-chlorophenyl)-5,5-difluoro-cyclohexen-1-yl]methoxy]-2,3-dimethyl-phenyl]Propanoic Acid]
- DIO Lowering (−30 to 90) ([1]; 10 mg/kg): −85%

SMILES: Cc1cc(CCC(=O)O)ccc1OCC1=C(c2ccc(Cl)cc2)CCCC1 [Compound 483, 3-[4-[[2-(4-chlorophenyl)cyclohexen-1-yl]methoxy]-3-methyl-phenyl]Propanoic Acid]
- C57 IPGTT, Dose Response Results (C57bl/6J Mice; 1 mg/kg): 23%
- C57 IPGTT, Dose Response Results (C57bl/6J Mice; 3 mg/kg): 33%
- C57 IPGTT, Dose Response Results (C57bl/6J Mice; 10 mg/kg): 51%

SMILES: Cc1ccc(C2=C(COc3ccc(CCC(=O)O)c(F)c3F)CCCC2)cc1F [Compound 494, 3-[2,3-difluoro-4-[[2-(3-fluoro-4-methyl-phenyl)cyclohexen-1-yl]methoxy]phenyl]Propanoic Acid]
- DIO Lowering (−30 to 90) ([1]; 10 mg/kg): −28%
